In patent US8697385B1, “Protein controlling synthesis of collagen and associated methods” (Florida State University Research Foundation, Inc., priority 2009, dated 2014):

What was measured:
[1] = tested on: human lung fibroblasts; test: Western blot analysis of cellular and medium collagen polypeptides, lung fibroblasts; assay type: cell-based; conditions: 16 h, ML-7 40 μM, blebbistatin 100 μM, vs control cells; for secretion of collagen α1(I) polypeptide into the medium / secretion of collagen α2(I) polypeptide into the medium / secretion/expression of fibronectin: cytochalasin B 20 μM
Description: (§1) ML-7, blebbistatin, cytochalasin B, puromycin, and cycloheximide were purchased from Sigma. ML-7 was used at 40 μM, blebbistatin was used at 100 μM, and cytochalasin B was used at 20 μM. Cells were incubated with the drugs for 16 h before analysis. Puromycin (200 μg/ml) and cycloheximide (100 μg/ml) were added to the cells for 2 h. Human lung fibroblasts have been described previously.16 Scleroderma fibroblasts were purchased from the European Collection of Cell Cultures (cell line BM0070) and derived from the skin of a scleroderma patient. MEFs were derived from knock-in mice in which the 5′SL of the collagen α1(I) gene has been mutated (Parsons et al., submitted). Several independent cell isolates were used throughout the study. All cells were cultured in Dulbecco's modified Eagle's medium supplemented with 10% fetal bovine serum for up to 10 passages. Plasmid constructs and adenovirus preparation. The HA-tagged LARP6 clone and the deletion mutants have been described previously.^16 Adenoviruses were constructed by recloning of the constructs into the pAdCMVTRACK vector, followed by recombination with the pAdEasy vector and amplification, as described previously.^48 Expression of each construct was verified by Western blot analysis. The viruses made express both the full-size test protein and the green fluorescent protein (GFP), which is encoded by an independent transcription unit.^48 Expression of GFP served as control for viral transduction. RT-PCR analysis Total cellular RNA was isolated using an RNA isolation kit (Sigma). RT-PCRs were performed with 100 ng of total RNA or using rTth reverse transcriptase (Boca Scientific, Boca Raton, Fla.). [^32P]dCTP was included in the PCR step to label the products, which were resolved on sequencing gels, as described previously.^8,31,49,50 When RNA from polysomal fractions was analyzed, an equal aliquot of each fraction was used. The number of cycles was adjusted to within the linear range of the reaction. The primers used for RT-PCR were as follows: h-collagen α1(I), 5′ primer […] (SEQ ID NO:3) and 3′ primer […] (SEQ ID NO:4); h-collagen α2(I), 5′ primer […] (SEQ ID NO:5) and 3′ primer […] (SEQ ID NO:6).
(§2) Protein concentration was estimated by the Bradford assay, with bovine serum albumin as standard.^51 Western blot analyses of cellular proteins were performed using 50 μg of protein. For Western blot analysis of secreted proteins, equal numbers of cells were seeded, serum-free medium was added to the cells, and incubation continued for 3 h. The medium was collected, and an aliquot was analyzed directly by Western blot analysis. Use of serum free medium in collecting secreted proteins is essential because fetal calf serum contains substantial amounts of collagen and fibronectin.^15,31 For immunostaining, cells were seeded onto glass coverslips. After treatment, the cells were fixed with 4% paraformaldehyde for 30 min at room temperature and permeabilized with 0.5% Triton X-100 in phosphatebuffered saline (PBS) for 10 min. After the cells had been blocked with 10% goat serum/5% bovine serum albumin in PBS for 1 h at room temperature, they were incubated with primary antibody overnight at 4° C., washed, and visualized with AlexaFluor594-conjugated or Cy-2-conjugated secondary antibodies. The cells were mounted using VECTASHIELD mounting medium containing […], 6-diamidino-2-phenylindole (Vector Laboratories), and images were taken by a Leica TCS SP2 AOBS laser confocal microscope equipped with a Chameleon Ti: Sapphire multiphoton laser. Optical sections were processed with LCSLite software.
(§3) To assess the role of nonmuscle myosin in collagen synthesis, we disrupted nonmuscle myosin filaments in two different cell types: primary human lung fibroblasts and primary scleroderma skin fibroblasts. These cells are responsible for lung and skin fibrosis. […]

[2] = tested on: primary scleroderma skin fibroblasts; test: Western blot analysis of cellular and medium collagen polypeptides, scleroderma fibroblasts; assay type: cell-based, human; conditions: 16 h, ML-7 40 μM, blebbistatin 100 μM; for secretion of collagen α1(I) polypeptide into the medium / secretion of collagen α2(I) polypeptide into the medium / secretion/expression of fibronectin: cytochalasin B 20 μM
Description: as §1, §2, §3

[3] = tested on: nonmuscle myosin IIB; test: Immunoprecipitation of nonmuscle myosin IIB and RT-PCR of collagen mRNAs; assay type: cell-based, human; conditions: lung fibroblasts; cycloheximide 100 μg/ml or puromycin 200 μg/ml, 2 h
Description: ML-7, blebbistatin, cytochalasin B, puromycin, and cycloheximide were purchased from Sigma. ML-7 was used at 40 μM, blebbistatin was used at 100 μM, and cytochalasin B was used at 20 μM. Cells were incubated with the drugs for 16 h before analysis. Puromycin (200 μg/ml) and cycloheximide (100 μg/ml) were added to the cells for 2 h. Human lung fibroblasts have been described previously.16 Scleroderma fibroblasts were purchased from the European Collection of Cell Cultures (cell line BM0070) and derived from the skin of a scleroderma patient. MEFs were derived from knock-in mice in which the 5′SL of the collagen α1(I) gene has been mutated (Parsons et al., submitted). […] [^32P]dCTP was included in the PCR step to label the products, which were resolved on sequencing gels, as described previously.^8,31,49,50 When RNA from polysomal fractions was analyzed, an equal aliquot of each fraction was used. […]
One of the roles of nonmuscle myosin filaments may be to present collagen mRNAs to ribosomes. Therefore, we assessed if the association of collagen mRNAs with nonmuscle myosin is dependent on intact polysomes. […] We then immunoprecipitated nonmuscle myosin from lung fibroblasts treated with cycloheximide or puromycin and analyzed if this can change the pull-down of collagen mRNAs. As control, the association with vimentin was analyzed in the same samples (FIG. 9b). […]

[4] = target: T1, fibronectin (human, UniProt P02751 32-2477, limits assumed); test: co-immunoprecipitation with anti-HA antibody from human lung fibroblasts, Western blot with anti-fibronectin
T1 construct: Specificity control in the co-immunoprecipitations, detected with anti-fibronectin antibody
T1 sequence (P02751 32-2477 limits assumed): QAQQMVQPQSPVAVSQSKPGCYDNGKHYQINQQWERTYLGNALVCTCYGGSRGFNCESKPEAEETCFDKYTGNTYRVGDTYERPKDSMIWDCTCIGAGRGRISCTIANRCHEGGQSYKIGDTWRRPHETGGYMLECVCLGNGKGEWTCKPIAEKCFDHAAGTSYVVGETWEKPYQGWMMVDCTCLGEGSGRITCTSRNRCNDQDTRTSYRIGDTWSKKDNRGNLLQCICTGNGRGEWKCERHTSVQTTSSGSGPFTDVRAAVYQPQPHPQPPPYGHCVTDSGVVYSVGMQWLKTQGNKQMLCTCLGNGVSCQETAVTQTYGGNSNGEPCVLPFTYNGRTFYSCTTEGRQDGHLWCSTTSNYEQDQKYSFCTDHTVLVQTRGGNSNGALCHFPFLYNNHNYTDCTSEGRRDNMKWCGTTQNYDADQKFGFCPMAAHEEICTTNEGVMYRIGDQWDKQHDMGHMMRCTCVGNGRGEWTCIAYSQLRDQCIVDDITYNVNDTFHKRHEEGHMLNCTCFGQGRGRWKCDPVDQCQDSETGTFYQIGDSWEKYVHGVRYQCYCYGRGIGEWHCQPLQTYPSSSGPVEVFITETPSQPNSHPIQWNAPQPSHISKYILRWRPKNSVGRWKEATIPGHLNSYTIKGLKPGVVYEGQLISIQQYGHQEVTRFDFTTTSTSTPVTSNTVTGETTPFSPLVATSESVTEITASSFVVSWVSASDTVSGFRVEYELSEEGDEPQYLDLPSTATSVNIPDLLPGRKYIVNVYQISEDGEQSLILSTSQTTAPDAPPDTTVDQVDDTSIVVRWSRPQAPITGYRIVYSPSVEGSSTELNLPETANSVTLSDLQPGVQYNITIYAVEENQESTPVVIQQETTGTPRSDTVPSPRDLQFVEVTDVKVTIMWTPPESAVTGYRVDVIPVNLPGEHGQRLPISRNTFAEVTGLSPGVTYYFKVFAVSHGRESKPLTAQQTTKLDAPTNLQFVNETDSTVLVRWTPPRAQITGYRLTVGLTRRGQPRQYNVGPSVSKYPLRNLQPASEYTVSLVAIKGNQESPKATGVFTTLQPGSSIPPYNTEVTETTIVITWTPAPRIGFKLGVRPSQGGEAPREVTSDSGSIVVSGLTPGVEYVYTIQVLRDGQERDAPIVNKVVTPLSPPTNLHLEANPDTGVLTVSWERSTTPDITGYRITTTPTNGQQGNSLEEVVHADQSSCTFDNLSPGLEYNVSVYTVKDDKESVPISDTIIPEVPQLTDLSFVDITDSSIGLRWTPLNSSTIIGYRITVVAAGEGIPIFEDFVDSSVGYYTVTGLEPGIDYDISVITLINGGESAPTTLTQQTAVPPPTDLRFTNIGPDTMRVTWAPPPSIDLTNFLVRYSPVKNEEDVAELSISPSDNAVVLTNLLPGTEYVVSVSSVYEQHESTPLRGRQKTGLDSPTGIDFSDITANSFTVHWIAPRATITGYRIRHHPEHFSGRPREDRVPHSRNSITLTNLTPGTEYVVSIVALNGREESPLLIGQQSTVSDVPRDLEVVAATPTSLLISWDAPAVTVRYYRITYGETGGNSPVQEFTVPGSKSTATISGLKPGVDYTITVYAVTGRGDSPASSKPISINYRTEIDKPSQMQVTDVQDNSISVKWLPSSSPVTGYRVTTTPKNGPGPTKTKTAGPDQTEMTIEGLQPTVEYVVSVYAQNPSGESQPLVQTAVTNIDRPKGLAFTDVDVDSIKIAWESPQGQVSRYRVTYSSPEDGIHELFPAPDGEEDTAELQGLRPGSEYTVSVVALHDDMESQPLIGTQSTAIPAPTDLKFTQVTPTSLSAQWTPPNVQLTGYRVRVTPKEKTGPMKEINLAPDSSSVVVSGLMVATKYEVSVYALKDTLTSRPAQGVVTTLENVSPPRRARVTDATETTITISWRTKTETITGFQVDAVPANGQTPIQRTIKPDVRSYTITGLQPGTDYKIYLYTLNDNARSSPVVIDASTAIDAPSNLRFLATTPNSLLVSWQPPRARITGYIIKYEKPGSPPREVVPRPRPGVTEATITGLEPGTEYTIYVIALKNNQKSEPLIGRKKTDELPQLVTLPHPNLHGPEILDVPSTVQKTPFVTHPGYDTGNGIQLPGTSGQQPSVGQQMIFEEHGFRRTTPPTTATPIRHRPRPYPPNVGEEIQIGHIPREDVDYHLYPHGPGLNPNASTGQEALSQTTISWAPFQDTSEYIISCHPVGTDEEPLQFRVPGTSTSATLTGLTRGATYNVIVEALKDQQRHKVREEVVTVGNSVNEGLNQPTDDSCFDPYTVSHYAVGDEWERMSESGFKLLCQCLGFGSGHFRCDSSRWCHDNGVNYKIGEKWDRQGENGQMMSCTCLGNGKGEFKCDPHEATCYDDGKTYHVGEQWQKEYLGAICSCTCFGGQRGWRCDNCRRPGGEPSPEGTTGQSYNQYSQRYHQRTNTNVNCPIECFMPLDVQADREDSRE

[5] = target: T2, nonmuscle myosin IIB (human, UniProt P35580 1-1976, limits assumed); test: co-immunoprecipitation with anti-HA antibody from human lung fibroblasts, Western blot with anti-myosin IIB
T2 construct: Endogenous protein in lysate of human lung fibroblasts, detected by Western blot with anti-myosin IIB (anti-MYH10) antibody; also called MYO IIB; MYH10
T2 sequence (P35580 whole entry): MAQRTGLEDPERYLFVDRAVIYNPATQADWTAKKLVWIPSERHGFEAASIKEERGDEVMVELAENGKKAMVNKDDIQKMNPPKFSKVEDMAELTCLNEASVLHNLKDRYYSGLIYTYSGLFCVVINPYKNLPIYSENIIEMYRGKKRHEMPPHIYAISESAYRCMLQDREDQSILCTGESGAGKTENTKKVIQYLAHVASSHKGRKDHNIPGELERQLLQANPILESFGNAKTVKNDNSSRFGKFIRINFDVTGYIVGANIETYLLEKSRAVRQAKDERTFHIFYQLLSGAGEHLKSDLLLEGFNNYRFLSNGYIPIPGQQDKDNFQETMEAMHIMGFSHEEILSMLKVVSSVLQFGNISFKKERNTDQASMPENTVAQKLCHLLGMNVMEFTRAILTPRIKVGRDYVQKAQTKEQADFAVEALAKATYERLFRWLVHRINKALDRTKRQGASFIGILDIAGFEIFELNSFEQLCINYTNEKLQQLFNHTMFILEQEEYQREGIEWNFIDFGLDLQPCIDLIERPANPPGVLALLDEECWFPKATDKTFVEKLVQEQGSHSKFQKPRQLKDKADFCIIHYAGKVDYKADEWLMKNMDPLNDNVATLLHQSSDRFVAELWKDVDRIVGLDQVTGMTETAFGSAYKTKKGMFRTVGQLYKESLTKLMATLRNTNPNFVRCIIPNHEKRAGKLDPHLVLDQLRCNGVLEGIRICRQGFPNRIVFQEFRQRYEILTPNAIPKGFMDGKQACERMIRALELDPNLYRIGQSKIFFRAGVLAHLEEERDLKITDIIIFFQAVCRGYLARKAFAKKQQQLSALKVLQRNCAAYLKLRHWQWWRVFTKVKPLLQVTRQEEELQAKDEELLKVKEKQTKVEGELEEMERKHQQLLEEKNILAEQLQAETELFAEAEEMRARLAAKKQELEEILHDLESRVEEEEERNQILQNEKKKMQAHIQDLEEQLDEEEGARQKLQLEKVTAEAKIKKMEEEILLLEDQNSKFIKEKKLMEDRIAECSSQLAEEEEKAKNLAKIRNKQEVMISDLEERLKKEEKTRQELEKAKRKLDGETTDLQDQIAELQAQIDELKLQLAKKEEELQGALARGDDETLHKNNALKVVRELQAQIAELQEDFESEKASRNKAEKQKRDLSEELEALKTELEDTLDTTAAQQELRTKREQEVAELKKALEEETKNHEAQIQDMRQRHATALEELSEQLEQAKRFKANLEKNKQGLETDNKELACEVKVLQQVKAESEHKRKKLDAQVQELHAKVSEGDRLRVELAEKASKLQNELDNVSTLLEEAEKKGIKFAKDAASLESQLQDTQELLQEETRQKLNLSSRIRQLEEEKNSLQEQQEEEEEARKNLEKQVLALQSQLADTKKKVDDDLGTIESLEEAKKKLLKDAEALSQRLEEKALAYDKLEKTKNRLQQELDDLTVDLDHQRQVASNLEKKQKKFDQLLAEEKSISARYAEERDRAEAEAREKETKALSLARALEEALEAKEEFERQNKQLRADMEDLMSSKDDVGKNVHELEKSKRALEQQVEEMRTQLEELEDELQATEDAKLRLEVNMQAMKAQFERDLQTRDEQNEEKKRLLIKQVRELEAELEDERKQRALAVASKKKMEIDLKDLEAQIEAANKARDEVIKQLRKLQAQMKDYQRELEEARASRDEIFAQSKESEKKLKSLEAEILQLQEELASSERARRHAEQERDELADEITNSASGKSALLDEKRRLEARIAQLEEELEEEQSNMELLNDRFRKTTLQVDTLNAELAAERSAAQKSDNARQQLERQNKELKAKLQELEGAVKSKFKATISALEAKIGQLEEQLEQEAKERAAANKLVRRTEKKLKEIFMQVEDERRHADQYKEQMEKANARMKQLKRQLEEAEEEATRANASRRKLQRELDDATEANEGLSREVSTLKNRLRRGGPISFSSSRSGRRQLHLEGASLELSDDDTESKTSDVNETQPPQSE
Description: (§4) HA, Western blot analysis using anti-HA antibody as control for immunoprecipitation efficiency of the tagged proteins. (c) Experiment as in (b), but Western blot analysis was performed using anti-myosin IIA antibody (MYO IIA). […] Experiment as in (b), but the lysate was treated with Rnase. A prior to immunoprecipitation (lane 1) or was not treated (lanes 2 and 3). The immunoprecipitate was analyzed with anti-myosin IIB antibody (MYO IIB), anti-fibronectin antibody (FIB; as control for specificity), and anti-HA antibody (HA; as control for precipitation efficiency).

[6] = target: T3, nonmuscle myosin IIA (human, UniProt P35579 2-1960); test: co-immunoprecipitation with anti-HA antibody from human lung fibroblasts, Western blot with anti-myosin IIA
T3 construct: Endogenous protein in lysate of human lung fibroblasts, detected with anti-myosin IIA antibody; also called MYO IIA
Description: as §4

Molecule	secretion of collagen α1(I) polypeptide into the medium [1]	secretion of collagen α2(I) polypeptide into the medium [1]	secretion/expression of fibronectin [1]	secretion of collagen α1(I) polypeptide into the medium [2]	secretion of collagen α2(I) polypeptide into the medium [2]	secretion/expression of fibronectin [2]	binding result [5]	also measured
Cc1ccc2c(c1)C(=O)C1(O)CCN(c3ccccc3)C1=N2 (centres unmarked) [blebbistatin]	minimally affecting	reduced	small effect	minimally affecting	abolished	small effect	–	intracellular level of collagen α1(I) and α2(I) polypeptides [1]: unchanged; intracellular level of collagen α1(I) polypeptide [2]: unchanged; intracellular level of collagen α2(I) polypeptide [2]: unchanged
C[C@@H]1C[C@@H]([C@H](O)CC2CC(=O)NC(=O)C2)C(=O)[C@@H](C)C1 [cycloheximide]	–	–	–	–	–	–	–	collagen α1(I) and α2(I) mRNAs pulled down with nonmuscle myosin IIB [3]: both collagen mRNAs were pulled down
C=C1[C@@H](C)[C@H]2[C@H](Cc3ccccc3)NC(=O)[C@]23OC(=O)/C=C/[C@H](O)CCC[C@@H](C)C/C=C/[C@H]3[C@@H]1O [cytochalasin B]	diminished	diminished	had an effect	no effect	small effect	small effect	–	–
HA-tagged full-size LARP6 (other, Expressed from adenovirus in human lung fibroblasts and immunoprecipitated from cell lysate with anti-HA antibody; also called HA-tagged LARP6; not shown: HA tag) MAQSGGEARPGPKTAVQIRVAIQEAEDVDELEDEEEGAETRGAGDPARYLSPGWGSASEEEPSRGHSGTTASGGENEREDLEQEWKPPDEELIKKLVDQIEFYFSDENLEKDAFLLKHVRRNKLGYVSVKLLTSFKKVKHLTRDWRTTAHALKYSVVLELNEDHRKVRRTTPVPLFPNENLPSKMLLVYDLYLSPKLWALATPQKNGRVQEKVMEHLLKLFGTFGVISSVRILKPGRELPPDIRRISSRYSQVGTQECAIVEFEEVEAAIKAHEFMITESQGKENMKAVLIGMKPPKKKPAKDKNHDEEPTASIHLNKSLNKRVEELQYMGDESSANSSSDPESNPTSPMAGRRHAATNKLSPSGHQNLFLSPNASPCTSPWSSPLAQRKGVSRKSPLAEEGRLNCSTSPEIFRKCMDYSSDSSVTPSGSPWVRRRRQAEMGTQEKSPGTSPLLSRKMQTADGLPVGVLRLPRGPDNTRGFHGHERSRACV	–	–	–	–	–	–	–	binding result [4]: no binding
HA-tagged RBMS3 (other, UniProt Q6XE24 1-437, looked up, Control protein expressed in human lung fibroblasts; not shown: HA tag) MGKRLDQPQMYPQYTYYYPHYLQTKQSYAPAPHPMAPPSPSTNSSSNNSSNNSSGEQLSKTNLYIRGLPPGTTDQDLIKLCQPYGKIVSTKAILDKNTNQCKGYGFVDFDSPAAAQKAVASLKANGVQAQMAKQQEQDPTNLYISNLPISMDEQELENMLKPFGHVISTRILRDANGVSRGVGFARMESTEKCEVVIQHFNGKYLKTPPGIPAPSEPLLCKFADGGQKKRQNQSKYTQNGRPWPREGEAGMALTYDPTAAIQNGFYSSPYSIATNRMIPQTSITPFIAASPVSTYQVQSTSWMPHPPYVMQPTGAVITPTMDHPMSMQPANMMGPLTQQMNHLSLGTTGTIQSQDRIMILHQLLCQYMTAAAPMQGTYIPQYTPVPPTAVSIEGVVADTSPQTVAPSSQDTSGQQQQIAVDTSNEHAPAYSYQQSKP	–	–	–	–	–	–	no binding	–
HA-tagged LARP6 lacking the C-terminal domain (ΔC-LARP6) (other, Expressed in human lung fibroblasts; also called HA-tagged ΔC-LARP6; C-terminal deletion mutant of LARP6; not shown: HA tag) MAQSGGEARPGPKTAVQIRVAIQEAEDVDELEDEEEGAETRGAGDPARYLSPGWGSASEEEPSRGHSGTTASGGENEREDLEQEWKPPDEELIKKLVDQIEFYFSDENLEKDAFLLKHVRRNKLGYVSVKLLTSFKKVKHLTRDWRTTAHALKYSVVLELNEDHRKVRRTTPVPLFPNENLPSKMLLVYDLYLSPKLWALATPQKNGRVQEKVMEHLLKLFGTFGVISSVRILKPGRELPPDIRRISSRYSQVGTQECAIVEFEEVEAAIKAHEFMITESQGKENMKAVLIGMKPPKKKP	–	–	–	–	–	–	no binding	binding result [6]: no binding
